Values of other authors as cited in patent US20190110514A1, “KITS COMPRISING SATIETY-INDUCING FORMULATIONS” (PERORA GMBH, priority 2016, published 2019).

What was measured:
satiety signalling = conditions: infusion into the duodenum by feeding tube
[1] = rat feeding study; independent from intake

For `CCCCCCCCCCCC(=O)O` [lauric acid], the satiety signalling (satiety signalling) is given as “strong satiety signalling”.

For `CCCCCCCC/C=C\CCCCCCCC(=O)O` [oleic acid], the satiety signalling (satiety signalling) is given as “strong satiety signalling”.

In the case of `CCCCCCCCCCCCCCCCCC(=O)OCC(COC(=O)CCCCCCCCCCCCCCCCC)OC(=O)CCCCCCCCCCCCCCCCC` [tristearin], the “true digestibility of stearic acid from tristearin” value [1] is given as 0.15 g/g.
